Literature values, collected in patent EP3645498B1, “PROCESS FOR RECOVERING ACETIC ACID FROM AN AQUEOUS STREAM COMPRISING THE SAME” (Nouryon Chemicals International B.V., priority 2017, dated 2019).
Read-outs that look alike come from different tables or passages of the source.

Row | SMILES | Solubility in water (result in words) | Solubility in water
1 | CCCCCCCCP(=O)(CCCCCCCC)CCCCCCCC [TOPO, tri-octylphosphine oxide] | Insoluble^[5] | –
2 | CCCCCCCCCCCO [1 -Undecanol, 1-undecanol] | Insoluble^[10] | –
3 | CCCCCCCCN(CCCCCCCC)CCCCCCCC [TOA, trioctylamine] | – | < 5ppm^[2]
4 | CCCCCCCCCCCCCC [n-Tetradecane, n-tetradecane] | – | 0.0022 mg/L^[8]
5 | CCCCCCCCCCCCc1ccccc1 [Phenyldodecane, phenyldodecane] | Insoluble^[11] | –
